Measured values published in the NIST ThermoML archive (doi:10.1021/je400468z).
“And” between values parts separate entries of the source, which are not always exact repeats. Equal entries are not always repeated. ± gives the expanded uncertainty stated by the source.

Test: relative permittivity at various frequencies (dimensionless)
Conditions: Liquid, Frequency=0.001 MHz, Coaxial cylinder capacitor

CCCCCCC [heptane]
Conditions | relative permittivity
303.56 K, 320.13 kPa | 1.90973 ± 0.00074
303.56 K, 1121.5 kPa | 1.91097 ± 0.00073
303.56 K, 5049.5 kPa | 1.9172 ± 0.00073
303.56 K, 10111 kPa | 1.92498 ± 0.00073
303.56 K, 20218 kPa | 1.93899 ± 0.00074
303.56 K, 20219 kPa | 1.93899 ± 0.00074
303.56 K, 30315 kPa | 1.95162 ± 0.00073
303.56 K, 30317 kPa | 1.95171 ± 0.00073
303.56 K, 40408 kPa | 1.96324 ± 0.00073
303.56 K, 50515 kPa | 1.97403 ± 0.00075
303.56 K, 60608 kPa | 1.98391 ± 0.00075
333.15 K, 327.25 kPa | 1.86971 ± 0.00075
333.15 K, 1134.1 kPa | 1.87125 ± 0.00074
333.15 K, 5058.1 kPa | 1.87892 ± 0.00074
333.15 K, 5509 kPa | 1.87899 ± 0.00074
333.15 K, 10118 kPa | 1.88834 ± 0.00073
333.15 K, 10122 kPa | 1.88832 ± 0.00073
333.15 K, 20230 kPa | 1.90484 ± 0.00074
333.15 K, 20232 kPa | 1.90482 ± 0.00074
333.15 K, 30327 kPa | 1.91942 ± 0.00074
333.15 K, 30328 kPa | 1.91944 ± 0.00074
333.15 K, 40419 kPa | 1.93256 ± 0.00073
333.15 K, 50511 kPa | 1.9444 ± 0.00073
333.15 K, 60625 kPa | 1.95543 ± 0.00075
363.01 K, 328.75 kPa | 1.82615 ± 0.00073
363.01 K, 1138 kPa | 1.82815 ± 0.00073
363.01 K, 5057.6 kPa | 1.83786 ± 0.00072
363.01 K, 5062.5 kPa | 1.83787 ± 0.00072
363.01 K, 10125 kPa | 1.84924 ± 0.00074
363.01 K, 20232 kPa | 1.86884 ± 0.00073 and 1.86885 ± 0.00073
363.01 K, 30330 kPa | 1.8855 ± 0.00072
363.01 K, 30332 kPa | 1.88575 ± 0.00072
363.01 K, 40413 kPa | 1.90054 ± 0.00074
363.01 K, 50513 kPa | 1.9141 ± 0.00073
363.01 K, 60612 kPa | 1.9264 ± 0.00073
363.01 K, 60613 kPa | 1.92636 ± 0.00073
